In this assay the target is T1, HIF-PHD2 (Homo sapiens, UniProt Q9GZT9).
T1 construct: FLAG-tagged full length PHD2 expressed in and purified from baculovirus-infected Sf9 cells; FLAG; made in house; host or cells: baculovirus-infected Sf9 cells
Briefly: Assay for HIF-PHD2 Catalytic Activity (PHD2 Binding Activity). The format is biochemical.

Setting [1] is: read-out: PHD2 Binding Activity IC50.

Each structure is given as a SMILES string. Read-outs that look alike come from different tables or passages of the source.

T1 sequence (Q9GZT9 whole entry): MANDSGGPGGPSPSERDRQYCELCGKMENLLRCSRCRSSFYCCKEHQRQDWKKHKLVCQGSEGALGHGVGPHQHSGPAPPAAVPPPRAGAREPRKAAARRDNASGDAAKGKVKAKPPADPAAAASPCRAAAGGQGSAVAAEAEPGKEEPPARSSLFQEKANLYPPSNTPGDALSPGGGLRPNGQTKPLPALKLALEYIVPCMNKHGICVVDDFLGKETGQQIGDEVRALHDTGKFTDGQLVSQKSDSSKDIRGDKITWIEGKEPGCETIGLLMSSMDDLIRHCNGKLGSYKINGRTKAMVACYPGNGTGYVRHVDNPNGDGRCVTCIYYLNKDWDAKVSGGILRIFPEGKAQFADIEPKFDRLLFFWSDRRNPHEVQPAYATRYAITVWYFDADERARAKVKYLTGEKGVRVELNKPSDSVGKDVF

In the case of `Cc1cccnc1CN1CCC2(CC1)C(=O)N(c1ccc(-c3ccccc3)cc1)C(=O)N2C(=O)NC(C)(C)C(=O)O` [Compound 5-3, 2-[({3-biphenyl-4-yl-8-[(3-methylpyridin-2-yl)methyl]-2,4-dioxo-1,3,8-triazaspiro[4.5]dec-1-yl}carbonyl)amino]-2-methylpropanoic acid], the concentration for half-maximal inhibition (IC50) under setting [1] is 0.5 to 20 nM.

With `Cc1cccnc1CN1CCC2(CC1)C(=O)N(c1ccc(-c3ccccc3)cc1)C(=O)N2c1ccc(C#N)cn1` [Compound 1-7, 6-{3-biphenyl-4-yl-8-[(3-methylpyridin-2-yl)methyl]-2,4-dioxo-1,3,8-triazaspiro[4.5]dec-1-yl}nicotinonitrile], the 50% inhibitory concentration (IC50) fell in the range of 0.5 to 20 nM.

As for `CCOC(=O)c1ccc(N2C(=O)N(c3nccc(OC)n3)C3(CCN(Cc4ncccc4C)CC3)C2=O)cc1` [Compound 1-26, ethyl 4-{1-(4-methoxypyrimidin-2-yl)-8-[(3-methylpyridin-2-yl)methyl]-2,4-dioxo-1,3,8-triazaspiro[4.5]dec-3-yl}benzoate], the IC50 was 0.5 to 20 nM.

Molecule `COC(=O)c1ccc(-c2ccc(N3C(=O)N(c4ccncn4)C4(CCN(Cc5ncccc5C)CC4)C3=O)cc2)c(C)c1` [Compound 8-2, methyl 2-methyl-4′-{8-[(3-methylpyridin-2-yl)methyl]-2,4-dioxo-1-pyrimidin-4-yl-1,3,8-triazaspiro[4.5]dec-3-yl}biphenyl-4-carboxylate] had an IC50 of 0.5 to 20 nM.

For the molecule `COc1cc(N2C(=O)N(c3ccc(-c4ccc(C5CC(=O)NN5)cc4)cc3)C(=O)C23CCN(Cc2ncccc2C)CC3)ncn1` (centres unmarked) [Compound 7-13, 1-(6-methoxypyrimidin-4-yl)-8-[(3-methylpyridin-2-yl)methyl]-3-[4′-(5-oxopyrazolidin-3-yl)biphenyl-4-yl]-1,3,8-triazaspiro[4.5] decane-2,4-dione], the half-maximal inhibitory concentration (IC50) lay in the range of 0.5 to 20 nM.

Take `Cc1cccnc1CN1CCC2(CC1)C(=O)N(c1ccc(-c3ccccc3)cc1)C(=O)N2C(=O)CCC(=O)O` [Compound 5-7, 4-{3-biphenyl-4-yl-8-[(3-methylpyridin-2-yl)methyl]-2,4-dioxo-1,3,8-triazaspiro[4.5]dec-1-yl}-4-oxobutanoic acid]: the IC50 under setting [1] is 0.5 to 20 nM.

Regarding `COc1ccnc(N2C(=O)N(c3ccc(-c4ccccc4)cc3)C(=O)C23CCN(Cc2nc[nH]c2C)CC3)n1` [Compound 1-49, 3-biphenyl-4-yl-1-(4-methoxypyrimidin-2-yl)-8-[(5-methyl-1-H-imidazol-4-yl)methyl]-1,3,8-triazaspiro[4.5]decane-2,4-dione], the half-maximal inhibitory concentration (IC50) was in the range of 0.5 to 20 nM.

Take `Cc1cccnc1CN1CCC2(CC1)C(=O)N(c1ccc(-c3ccccc3)cc1)C(=O)N2c1ncccc1O` [Compound 1-43, 3-biphenyl-4-yl-1-(3-hydroxypyridin-2-yl)-8-[(3-methylpyridin-2-yl)methyl]-1,3,8-triazaspiro[4.5]decane-2,4-dione]: the concentration for half-maximal inhibition (IC50) was in the range of 20 to 50 nM.

On to `O=C(O)c1[nH]cnc1CN1CCC2(CC1)C(=O)N(c1ccc(-c3ccccc3)cc1)C(=O)N2c1cc(O)ncn1` [Compound 1-52, 4-{[3-biphenyl-4-yl-1-(6-hydroxypyrimidin-4-yl)-2,4-dioxo-1,3,8-triazaspiro[4.5]dec-8-yl]methyl}-1-H-imidazole-5-carboxylic acid], for which the 50% inhibitory concentration (IC50) lay in the range of 0.5 to 20 nM.

`O=C(O)CCn1ccnc1CN1CCC2(CC1)C(=O)N(c1ccc(-c3ccccc3)cc1)C(=O)N2c1nccc(O)n1` [Compound 1-24, 3-(2-{[3-biphenyl-4-yl-1-(4-hydroxypyrimidin-2-yl)-2,4-dioxo-1,3,8-triazaspiro[4.5]dec-8-yl]methyl}-1H-imidazol-1-yl)propanoic acid] displayed an IC50 of 0.5 to 20 nM.

On to `Cc1cccnc1CN1CCC2(CC1)C(=O)N(c1ccc(C3CC3C(=O)O)cc1)C(=O)N2c1ncccn1` (centres unmarked) [Compound 1-69, 2-(4-{8-[(3-methylpyridin-2-yl)methyl]-2,4-dioxo-1-pyrimidin-2-yl-1,3,8-triazaspiro[4.5]dec-3-yl}phenyl)cyclopropanecarboxylic acid], for which the concentration for half-maximal inhibition (IC50) lay in the range of 0.5 to 20 nM.

Regarding `Cc1cccnc1CN1CCC2(CC1)C(=O)N(c1ccc(-c3ccccc3)cc1)C(=O)N2c1cccs1` [Compound 1-27, 3-biphenyl-4-yl-8-[(3-methylpyridin-2-yl)methyl]-1-(2-thienyl)-1,3,8-triazaspiro[4.5]decane-2,4-dione], the half-inhibitory concentration (IC50) under setting [1] is 0.5 to 20 nM.

Regarding `CCOC(=O)C1CN(Cc2ncccc2C)CCC12C(=O)N(c1ccc(-c3ccccc3)cc1)C(=O)N2c1cc(O)ncn1` (centres unmarked) [Compound 3-6, Ethyl 3-biphenyl-4-yl-1-(6-hydroxypyrimidin-4-yl)-8-[(3-methylpyridin-2-yl)methyl]-2,4-dioxo-1,3,8-triazaspiro[4.5]decane-6-carboxylate], the half-maximal inhibitory concentration (IC50) was 0.5 to 20 nM.

For the molecule `COc1ccnc(N2C(=O)N(c3ccc(-c4ccccc4)cc3)C(=O)C23CCN(Cc2ncccc2C#N)CC3)n1` [Compound 1-40, 2-{[3-biphenyl-4-yl-1-(4-methoxypyrimidin-2-yl)-2,4-dioxo-1,3,8-triazaspiro[4.5]dec-8-yl]methyl}nicotinonitrile], the IC50 was greater than 50 nM.

`COc1ccnc(CN2CCC3(CC2)C(=O)N(c2ccc(-c4ccc(C(=O)O)cc4)nc2)C(=O)N3c2cc(OC)ncn2)c1` [Compound 10-3, 4-(5-{8-[(4-methoxypyridin-2-yl)methyl]-1-(6-methoxypyrimidin-4-yl)-2,4-dioxo-1,3,8-triazaspiro[4.5]dec-3-yl}-pyridin-2-yl) benzoic acid] showed an IC50 of 0.5 to 20 nM.

For `Cc1cccnc1CN1CCC2(CC1)C(=O)N(c1ccc(-c3ccc(CC(=O)O)cc3)cc1)C(=O)N2c1ncccn1` [Compound 1-67, (4′-{8-[(3-methylpyridin-2-yl)methyl]-2,4-dioxo-1-pyrimidin-2-yl-1,3,8-triazaspiro[4.5]dec-3-yl}biphenyl-4-yl)acetic acid], the IC50 was 20 to 50 nM.

Take `Cc1cccnc1CN1CCC2(CC1)C(=O)N(c1ccc(-c3ccccc3)cc1)C(=O)N2CC(=O)O` [Compound 2-7]: under setting [1], the half-maximal inhibitory concentration (IC50) is 0.5 to 20 nM.

As for `COc1ccnc(N2C(=O)N(c3ccc(C#N)cc3)C(=O)C23CCN(Cc2ncccc2C)CC3)n1` [Compound 1-25, 4-{1-(4-methoxypyrimidin-2-yl)-8-[(3-methylpyridin-2-yl)methyl]-2,4-dioxo-1,3,8-triazaspiro[4.5]dec-3-yl}benzonitrile], the 50% inhibitory concentration (IC50) is greater than 50 nM.

In turn, `Cc1cccnc1CN1CCC2(CC1)C(=O)N(c1ccc(C(=O)O)cc1)C(=O)N2c1nccc(O)n1` [Compound 1-17, 4-{1-(4-hydroxypyrimidin-2-yl)-8-[(3-methylpyridin-2-yl)methyl]-2,4-dioxo-1,3,8-triazaspiro[4.5]dec-3-yl}benzoic acid] yielded a half-maximal inhibitory concentration (IC50) greater than 50 nM.

In the case of `CCOC(=O)C1CN(Cc2ncccc2C)CCC12C(=O)N(c1ccc(-c3ccccc3)cc1)C(=O)N2c1nccc(O)n1` (centres unmarked) [Compound 3-3, ethyl 3-biphenyl-4-yl-1-(4-hydroxypyrimidin-2-yl)-8-[(3-methylpyridin-2-yl)methyl]-2,4-dioxo-1,3,8-triazaspiro[4.5]decane-6-carboxylate], the half-maximal inhibitory concentration (IC50) was 0.5 to 20 nM.

`Cc1cccnc1CN1CCC2(C(=O)N(c3ccc(-c4ccccc4)cc3)C(=O)N2c2nccc(O)n2)C(C(=O)O)C1` (centres unmarked) [Compound 3-4, 3-biphenyl-4-yl-1-(4-hydroxypyrimidin-2-yl)-8-[(3-methylpyridin-2-yl)methyl]-2,4-dioxo-1,3,8-triazaspiro[4.5]decane-6-carboxylic acid] yielded an IC50 of 0.5 to 20 nM.

As to `Cc1cccnc1CN1CCC2(CC1)C(=O)N(c1ccc(-c3ccccc3)cc1)C(=O)N2c1cc(C(=O)O)ccn1` [Compound 1-5, 2-{3-biphenyl-4-yl-8-[(3-methylpyridin-2-yl)methyl]-2,4-dioxo-1,3,8-triazaspiro[4.5]dec-1-yl}isonicotinic acid], the half-inhibitory concentration (IC50) lay within 0.5 to 20 nM.

As for `COC(=O)c1cccc(N2C(=O)N(c3ccc(-c4ccccc4)cc3)C(=O)C23CCN(Cc2ncccc2C)CC3)n1` [Compound 1-13, methyl 6-{3-biphenyl-4-yl-8-[(3-methylpyridin-2-yl)methyl]-2,4-dioxo-1,3,8-triazaspiro[4.5]dec-1-yl}pyridine-2-carboxylate], the IC50 was 0.5 to 20 nM.

For `COc1ccnc(N2C(=O)N(c3ccc(-c4ccccc4)cc3)C(=O)C23CCN(Cc2ncccc2-c2nnn[nH]2)CC3)n1` [Compound 1-41, 3-biphenyl-4-yl-1-(4-methoxypyrimidin-2-yl)-8-{[3-(1H-tetrazol-5-yl)pyridin-2-yl]methyl}-1,3,8-triazaspiro[4.5]decane-2,4-dione], the concentration for half-maximal inhibition (IC50) was greater than 50 nM.

For the molecule `Cc1cc(N2C(=O)N(c3ccc(-c4ccc(C(=O)O)cc4)cc3)C(=O)C23CCN(Cc2ncccc2C)CC3)ncn1` [Compound 7-9, 4′-[8-[(3-methylpyridin-2-yl)methyl]-1-(6-methylpyrimidin-4-yl)-2,4-dioxo-1,3,8-triazaspiro[4.5]dec-3-yl]biphenyl-4-carboxylic acid], the IC50 was in the range of 0.5 to 20 nM.

As for `CCOC(=O)C1CN(Cc2ncccc2C)CCC12C(=O)N(c1ccc(-c3ccccc3)cc1)C(=O)N2c1cc(OC)ncn1` (centres unmarked) [Compound 3-9, Ethyl 3-biphenyl-4-yl-1-(6-methoxypyrimidin-4-yl)-8-[(3-methylpyridin-2-yl)methyl]-2,4-dioxo-1,3,8-triazaspiro[4.5]decane-6-carboxylate], the IC50 is 0.5 to 20 nM.

As to `CCOC(=O)C1CN(Cc2ncccc2C)CCC12C(=O)N(c1ccc(-c3ccccc3)cc1)C(=O)N2c1nccc(OC)n1` (centres unmarked) [Compound 3-2, ethyl 3-biphenyl-4-yl-1-(4-methoxypyrimidin-2-yl)-8-[(3-methylpyridin-2-yl)methyl]-2,4-dioxo-1,3,8-triazaspiro[4.5]decane-6-carboxylate], the half-maximal inhibitory concentration (IC50) was in the range of 0.5 to 20 nM.

On to `O=C(O)c1[nH]cnc1CN1CCC2(CC1)C(=O)N(c1ccc(-c3ccccc3)cc1)C(=O)N2c1nccc(O)n1` [Compound 1-50], for which the 50% inhibitory concentration (IC50) is 20 to 50 nM.

`Cc1cccnc1CN1CCC2(CC1)C(=O)N(c1ccc(-c3nnn[nH]3)cc1)C(=O)N2c1nccc(O)n1` [Compound 1-16, 1-(4-hydroxypyrimidin-2-yl)-8-[(3-methylpyridin-2-yl)methyl]-3-[4-(1H-tetrazol-5-yl)phenyl]-1,3,8-triazaspiro[4.5]decane-2,4-dione] came in with an IC50 greater than 50 nM.

Broadly, the IC50 is the point on the concentration scale where inhibition reaches its midpoint.

Values taken from patent US8921555B2, “Substituted-1,3,8-triazaspiro[4.5]decane-2,4-diones” (Merck Sharp & Dohme Corp., priority 2009, dated 2014).
